Where two headings read alike, the source gives them in different places.
Key:
[1] = Red blood cell distribution in whole blood; type: in vitro ADME; conditions: male, Sprague-Dawley, rat, whole blood (EDTA)
[2] = Red blood cell distribution in whole blood; type: in vitro ADME; conditions: human, whole blood (pooled, EDTA)
hERG = hERG (Homo sapiens, UniProt Q12809); type: cell-based
hypertension = conditions: mice; ref Wu et al., 2016; cited from earlier work
[3] = system: Salmonella typhimurium TA 102; test: Ames bacterial reverse mutation assay, plate incorporation method; type: cell-based
CYP2B6 = test: CYP mRNA induction in human hepatocytes; type: in vitro ADME; conditions: 0.3, 3, 30 µM; 72 hours; 3 donors
CYP1A2 = test: CYP mRNA induction in human hepatocytes; type: in vitro ADME; conditions: 0.3, 3, 30 µM; 72 hours; 3 donors
[4] = In vitro metabolism in cryopreserved hepatocytes; type: in vitro ADME; conditions: human hepatocytes; 25 µM; 4 hours
[5] = In vitro metabolism in cryopreserved hepatocytes; type: in vitro ADME; conditions: rabbit hepatocytes; 25 µM; 4 hours
[6] = system: Salmonella typhimurium TA 1535; type: cell-based; conditions: plate incorporation
[7] = system: Salmonella typhimurium TA 98; test: Ames bacterial reverse mutation assay, pre-incubation method; type: cell-based
[8] = Plasma protein binding by equilibrium dialysis; type: in vitro ADME; conditions: male, Sprague-Dawley, rat, plasma, pH 7.4
plasma protein [9] = test: Plasma protein binding by equilibrium dialysis; type: in vitro ADME; conditions: rat plasma, mean ± SE
plasma protein [10] = conditions: human plasma, mean ± SE
[11] = system: Salmonella typhimurium TA 98; test: Ames bacterial reverse mutation assay, plate incorporation method; type: cell-based
[12] = Stability in human whole blood; type: in vitro ADME; conditions: 37°C, no increase in salicylic acid
[13] = system: Salmonella typhimurium TA 1537; test: Ames bacterial reverse mutation assay, pre-incubation method; type: cell-based
[14] = system: Salmonella typhimurium TA 100; type: cell-based; conditions: plate incorporation
[15] = Stability in rabbit plasma; type: in vitro ADME
[16] = Stability in rabbit whole blood; type: in vitro ADME
[17] = +S9, 0.05 mg/plate as printed (third dose row)
[18] = −S9, 0.05 mg/plate as printed (third dose row)

Chain of hERG (Q12809 whole entry): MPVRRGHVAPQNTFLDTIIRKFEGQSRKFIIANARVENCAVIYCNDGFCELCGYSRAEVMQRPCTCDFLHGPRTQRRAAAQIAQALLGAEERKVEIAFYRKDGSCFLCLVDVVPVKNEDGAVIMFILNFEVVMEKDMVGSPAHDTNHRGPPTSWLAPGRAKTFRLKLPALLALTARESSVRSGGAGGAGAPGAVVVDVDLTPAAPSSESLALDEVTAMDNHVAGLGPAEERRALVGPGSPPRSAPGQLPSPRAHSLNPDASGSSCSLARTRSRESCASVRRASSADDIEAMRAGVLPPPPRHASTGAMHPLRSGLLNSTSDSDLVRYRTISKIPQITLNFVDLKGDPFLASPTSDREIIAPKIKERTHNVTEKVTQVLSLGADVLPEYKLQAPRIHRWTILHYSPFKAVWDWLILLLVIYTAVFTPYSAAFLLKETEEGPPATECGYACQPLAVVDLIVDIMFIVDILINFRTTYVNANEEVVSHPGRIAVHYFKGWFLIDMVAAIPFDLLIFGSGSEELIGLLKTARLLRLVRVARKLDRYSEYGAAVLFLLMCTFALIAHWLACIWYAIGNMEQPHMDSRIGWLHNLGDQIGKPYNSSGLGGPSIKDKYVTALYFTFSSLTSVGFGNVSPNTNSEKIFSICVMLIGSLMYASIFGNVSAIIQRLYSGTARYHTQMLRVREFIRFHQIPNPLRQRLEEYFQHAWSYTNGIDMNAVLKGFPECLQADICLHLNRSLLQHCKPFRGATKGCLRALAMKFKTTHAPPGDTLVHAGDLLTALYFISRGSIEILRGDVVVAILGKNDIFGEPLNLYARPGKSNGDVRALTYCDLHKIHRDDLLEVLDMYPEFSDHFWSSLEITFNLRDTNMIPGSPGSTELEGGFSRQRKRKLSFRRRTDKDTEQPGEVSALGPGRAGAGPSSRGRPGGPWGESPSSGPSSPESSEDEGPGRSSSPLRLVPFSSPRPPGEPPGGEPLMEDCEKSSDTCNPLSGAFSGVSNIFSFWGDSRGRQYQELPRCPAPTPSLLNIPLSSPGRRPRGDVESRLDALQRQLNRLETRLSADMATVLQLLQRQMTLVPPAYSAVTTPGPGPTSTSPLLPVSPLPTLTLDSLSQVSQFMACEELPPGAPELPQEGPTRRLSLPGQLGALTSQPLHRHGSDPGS

CC(=O)O.NCc1ccccc1O [2-HOBA, 2-Hydroxybenzylamine acetate]
Kp at 2 h, 1 µM [1]: 0.72 ± 0.1
Kp at 2 h, 10 µM [1]: 0.78
blood plasma ratio at 2 h, 1 µM [1]: 0.87 ± 0.05
blood plasma ratio at 2 h, 10 µM [1]: 0.9
Kp at 2 h, 1 µM [2]: 1.26 ± 0.01
Kp at 2 h, 10 µM [2]: 1.08
blood plasma ratio at 2 h, 1 µM [2]: 1.12 ± 0.03
blood plasma ratio at 2 h, 10 µM [2]: 1.04
IC50 (hERG): > 100 µM
Inhibition of hERG current (hERG; 0.1 µM): no inhibition
Inhibition of hERG current (hERG; 1 µM, mean ± SE): 3.0 ± 0.5 % inhibition
Inhibition of hERG current (hERG; 10 µM, mean ± SE): 9.7 ± 1.8 % inhibition
Inhibition of hERG current (hERG; 100 µM, mean ± SE): 29.1 ± 1.3 % inhibition
hypertension (hypertension): improved hypertension
Mean plate counts (revertant colonies) ([3]; +S9, 0.05 mg/plate): 302.7±11.4
Mean plate counts (revertant colonies) [3, 17]: 323.3±61.2
Mean plate counts (revertant colonies) ([3]; +S9, 0.15 mg/plate): 296.7±27.2
Mean plate counts (revertant colonies) ([3]; +S9, 1.5 mg/plate): 293.3±24.2
Mean plate counts (revertant colonies) ([3]; +S9, 5 mg/plate): 282.7±19.0
Change in revertant colony counts vs negative control (mutagenicity) ([3]; +S9 and −S9, all dose levels): No changes in revertant colony counts were observed
Mean plate counts (revertant colonies) ([3]; −S9, 0.05 mg/plate): 292.7±6.4
Mean plate counts (revertant colonies) [3, 18]: 279.3±14.2
Mean plate counts (revertant colonies) ([3]; −S9, 0.15 mg/plate): 287.3±24.0
Mean plate counts (revertant colonies) ([3]; −S9, 1.5 mg/plate): 297.3±6.4
Mean plate counts (revertant colonies) ([3]; −S9, 5 mg/plate): 328.0±63.2
CYP2B6 mRNA induction (concentration-dependent >2-fold increase) (CYP2B6): no evidence of mRNA induction
CYP1A2 mRNA induction (concentration-dependent >2-fold increase) (CYP1A2): no evidence of mRNA induction
principle metabolites observed [4]: salicylic acid (M1) and the glycoside conjugate metabolite of 2-HOBA
principle metabolites observed [5]: salicylic acid (M1) and the glycoside conjugate metabolite of 2-HOBA
Mean plate counts (revertant colonies) ([6]; +S9, 0.05 mg/plate): 9.3±1.5
Mean plate counts (revertant colonies) [6, 17]: 10.7±0.6
Mean plate counts (revertant colonies) ([6]; +S9, 0.15 mg/plate): 9.0±1.0
Mean plate counts (revertant colonies) ([6]; +S9, 1.5 mg/plate): 10.3±1.5
Mean plate counts (revertant colonies) ([6]; +S9, 5 mg/plate): 10.3±1.5
Change in revertant colony counts vs negative control (mutagenicity) ([6]; +S9 and −S9, all dose levels): No changes in revertant colony counts were observed
Mean plate counts (revertant colonies) ([6]; −S9, 0.05 mg/plate): 10.7±0.6
Mean plate counts (revertant colonies) [6, 18]: 10.7±1.2
Mean plate counts (revertant colonies) ([6]; −S9, 0.15 mg/plate): 11.0±1.0
Mean plate counts (revertant colonies) ([6]; −S9, 1.5 mg/plate): 10.7±1.2
Mean plate counts (revertant colonies) ([6]; −S9, 5 mg/plate): 11.0±1.0
Mean plate counts (revertant colonies) ([7]; +S9, 0.05 mg/plate): 25.7±3.1
Mean plate counts (revertant colonies) ([7]; +S9, 0.15 mg/plate): 23.7±2.5
Mean plate counts (revertant colonies) ([7]; +S9, 0.5 mg/plate): 24.3±2.1
Mean plate counts (revertant colonies) ([7]; +S9, 1.5 mg/plate): 25.7±3.1
Mean plate counts (revertant colonies) ([7]; +S9, 5 mg/plate): 22.3±3.2
Change in revertant colony counts vs negative control (mutagenicity) ([7]; +S9 and −S9, all dose levels): No changes in revertant colony counts were observed
Mean plate counts (revertant colonies) ([7]; −S9, 0.05 mg/plate): 20.0±1.0
Mean plate counts (revertant colonies) [7, 18]: 20.7±2.1
Mean plate counts (revertant colonies) ([7]; −S9, 0.15 mg/plate): 16.7±1.5
Mean plate counts (revertant colonies) ([7]; −S9, 1.5 mg/plate): 22.3±3.2
Mean plate counts (revertant colonies) ([7]; −S9, 5 mg/plate): 23.0±1.0
fraction unbound at 4 h, 1 µM [8]: 0.76 ± 0.051
fraction unbound at 4 h, 10 µM [8]: 0.951
fb (bound fraction) (plasma protein [9]; 1 µM): 0.240 ± 0.051
fb (bound fraction) (plasma protein [9]; 10 µM): 0.049 ± 0.029
fb (bound fraction) (plasma protein [10]; 1 µM): 0.079 ± 0.023
fb (bound fraction) (plasma protein [10]; 10 µM): 0.140 ± 0.022
Mean plate counts (revertant colonies) ([11]; +S9, 0.05 mg/plate): 20.7±1.2
Mean plate counts (revertant colonies) [11, 17]: 20.7±1.2
Mean plate counts (revertant colonies) ([11]; +S9, 0.15 mg/plate): 21.0±3.0
Mean plate counts (revertant colonies) ([11]; +S9, 1.5 mg/plate): 21.3±1.5
Mean plate counts (revertant colonies) ([11]; +S9, 5 mg/plate): 22.0±2.0
Change in revertant colony counts vs negative control (mutagenicity) ([11]; +S9 and −S9, all dose levels): No changes in revertant colony counts were observed
Mean plate counts (revertant colonies) ([11]; −S9, 0.05 mg/plate): 19.7±1.5
Mean plate counts (revertant colonies) [11, 18]: 22.0±3.6
Mean plate counts (revertant colonies) ([11]; −S9, 0.15 mg/plate): 20.0±1.0
Mean plate counts (revertant colonies) ([11]; −S9, 1.5 mg/plate): 21.3±1.5
Mean plate counts (revertant colonies) ([11]; −S9, 5 mg/plate): 21.0±2.0
metabolism in whole blood [12]: some 2-HOBA metabolism was observed
Mean plate counts (revertant colonies) ([13]; +S9, 0.05 mg/plate): 6.7±0.6
Mean plate counts (revertant colonies) ([13]; +S9, 0.15 mg/plate): 7.3±1.2
Mean plate counts (revertant colonies) ([13]; +S9, 0.5 mg/plate): 8.0±1.0
Mean plate counts (revertant colonies) ([13]; +S9, 1.5 mg/plate): 7.0±1.0
Mean plate counts (revertant colonies) ([13]; +S9, 5 mg/plate): 6.3±1.5
Change in revertant colony counts vs negative control (mutagenicity) ([13]; +S9 and −S9, all dose levels): No changes in revertant colony counts were observed
Mean plate counts (revertant colonies) ([13]; −S9, 0.05 mg/plate): 6.7±0.6
Mean plate counts (revertant colonies) [13, 18]: 7.0±0.0
Mean plate counts (revertant colonies) ([13]; −S9, 0.15 mg/plate): 6.0±1.0
Mean plate counts (revertant colonies) ([13]; −S9, 1.5 mg/plate): 6.0±1.0
Mean plate counts (revertant colonies) ([13]; −S9, 5 mg/plate): 6.3±1.2
Mean plate counts (revertant colonies) ([14]; +S9, 0.05 mg/plate): 106.3±1.5
Mean plate counts (revertant colonies) [14, 17]: 96.3±5.1
Mean plate counts (revertant colonies) ([14]; +S9, 0.15 mg/plate): 104.7±8.1
Mean plate counts (revertant colonies) ([14]; +S9, 1.5 mg/plate): 106.7±6.1
Mean plate counts (revertant colonies) ([14]; +S9, 5 mg/plate): 101.3±4.2
Change in revertant colony counts vs negative control (mutagenicity) ([14]; +S9 and −S9, all dose levels): No changes in revertant colony counts were observed
Mean plate counts (revertant colonies) ([14]; −S9, 0.05 mg/plate): 90.3±1.5
Mean plate counts (revertant colonies) [14, 18]: 100.0±9.2
Mean plate counts (revertant colonies) ([14]; −S9, 0.15 mg/plate): 105.3±8.3
Mean plate counts (revertant colonies) ([14]; −S9, 1.5 mg/plate): 101.3±3.2
Mean plate counts (revertant colonies) ([14]; −S9, 5 mg/plate): 100.7±2.1
fraction metabolized ([15]; within 30 min): more than 60%
fraction metabolized ([15]; within 2 hours): nearly all
stability in the presence of semicarbazide ([16]; rabbit blood fortified with semicarbazide (100 µm)): prevented the degradation of 2-HOBA
time until undetectable ([16]; rabbit whole blood, 1 µM, 37°C): ≤ 2 h
fraction metabolized ([16]; rabbit whole blood, within 30 min): more than 60%
fraction metabolized ([16]; rabbit whole blood, within 2 hours): nearly all
